Assay results taken from patent US20110110891A1, “Methods of Treating Hepatitis C Virus Infection” (priority 2008, published 2011).

How the values were obtained:
HCV [1] = assay: HCV RNA in supernatant of eGFP-Jc1 transfected Huh7.5 cells (qRT-PCR); assay type: cell-based, Hepatitis C virus; conditions: 10 μM, Day 3
Protocol: (§1) Day 0: Huh7.5 cells were transfected with an eGFP-Jc1 reporter construct RNA via electroporation (10 μg RNA per 4×10^6 cells). The eGFP-Jc1 reporter construct is a modified version of the Jc1 (J6/C3 chimera) described by Pietschmann et al. (2006) PNAS 103(19): 7408-7413, in which an eGFP (enhanced green fluorescent protein)-IRES (internal ribosomal entry site) cassette has been inserted between the 5′UTR and the open reading frame of the Jc1 construct.
(§2) Transfected cells were then plated at 2×10^6 cells per T75 flask.
(§3) Day 1: The cells were washed 3 times and treated with 10 μl dimethylsulfoxide (DMSO) (control), 10 μM ERK Inhibitor II (FR180204Calbiochem) or 10 μM U0126 (Promega).
(§4) Day 3: The transfected Huh7.5 cells and the supernatant were harvested. The harvested cells and the supernatant were analyzed by quantitative reverse transcription-polymerase chain reaction (qRT-PCR) for levels of HCV RNA
(§5) Viral RNA in culture supernatants was isolated using RNA STAT-50 LS REAGENT (Tel Test). total cellular RNA or 10 μl of RNA of culture supernatant was used for cDNA synthesis using SuperScript III reverse transcriptase (Invitrogen) and random hexamer primers. Viral RNA levels were measured by quantitative real-time PCR using Taqman probes and corresponding primers.

HCV [2] = assay: Intracellular HCV RNA in eGFP-Jc1 transfected Huh7.5 cells (qRT-PCR); assay type: cell-based, Hepatitis C virus; conditions: 10 μM, Day 3
Protocol: as §1, with “The” for “Day 0: Huh7.5 cells were transfected with an eGFP-Jc1 reporter construct RNA via electroporation (10 μg RNA per 4×10^6 cells). The”
as §2, §3, §4
Total RNA was extracted from transfected cells using RNA STAT-60 REAGENT (Tel Test).
as §5

ERK-2 = ERK-2 (Homo sapiens, UniProt P28482); conditions: cited from earlier work
MEK-1 = MEK-1 (Homo sapiens, UniProt Q02750); conditions: in vitro; cited from earlier work
MEK 1/2 = conditions: cited from earlier work
Mek = conditions: cited from earlier work
ERK = conditions: cited from earlier work
c-Src = c-Src (Homo sapiens, UniProt P12931); conditions: cited from earlier work
cdks = conditions: cited from earlier work
PI 3-kinase γ = PI 3-kinase γ (Homo sapiens, UniProt P48736); conditions: cited from earlier work
HCV [3] = conditions: 10 μM, 1 h pretreatment, anti-CD81 single-round infection
Protocol: Virus: Transfection of Huh7.5 cells with eGFP-Jc1 reporter construct RNA via electroporation (10 μg RNA per 4×10^6 cells)
Harvest virus in the supernatant (Filter & Concentrate using Amicon MWCO 100): conc 10 ml to 200 μl after 3 days
Day 0: Plate Huh7.5 at 1×10^4 cells per well […] (24 well plate)
Day 1: Pretreat cells with 10 μl DMSO or 10 μM U0126 for 1 h
Infection with 50 μl conc. virus per well for 3 h at 37° C.
Addition of 10 μg/ml anti-CD81 antibody (α-CD81) for single-round infection
Day 4: Harvest infected cells for FACS analysis.

Chain of MEK-1 (Q02750 whole entry, species assumed): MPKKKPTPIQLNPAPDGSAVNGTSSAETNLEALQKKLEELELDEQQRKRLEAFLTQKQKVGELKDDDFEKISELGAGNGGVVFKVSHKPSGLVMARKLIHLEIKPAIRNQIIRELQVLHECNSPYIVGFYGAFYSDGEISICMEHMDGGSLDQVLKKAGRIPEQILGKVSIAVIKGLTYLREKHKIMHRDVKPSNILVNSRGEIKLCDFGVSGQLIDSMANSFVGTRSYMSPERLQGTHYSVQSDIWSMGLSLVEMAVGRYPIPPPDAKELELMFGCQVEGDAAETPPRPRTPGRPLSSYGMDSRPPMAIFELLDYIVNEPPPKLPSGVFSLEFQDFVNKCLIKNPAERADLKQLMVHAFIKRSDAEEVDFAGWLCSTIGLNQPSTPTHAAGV
Chain of c-Src (P12931 whole entry, species assumed): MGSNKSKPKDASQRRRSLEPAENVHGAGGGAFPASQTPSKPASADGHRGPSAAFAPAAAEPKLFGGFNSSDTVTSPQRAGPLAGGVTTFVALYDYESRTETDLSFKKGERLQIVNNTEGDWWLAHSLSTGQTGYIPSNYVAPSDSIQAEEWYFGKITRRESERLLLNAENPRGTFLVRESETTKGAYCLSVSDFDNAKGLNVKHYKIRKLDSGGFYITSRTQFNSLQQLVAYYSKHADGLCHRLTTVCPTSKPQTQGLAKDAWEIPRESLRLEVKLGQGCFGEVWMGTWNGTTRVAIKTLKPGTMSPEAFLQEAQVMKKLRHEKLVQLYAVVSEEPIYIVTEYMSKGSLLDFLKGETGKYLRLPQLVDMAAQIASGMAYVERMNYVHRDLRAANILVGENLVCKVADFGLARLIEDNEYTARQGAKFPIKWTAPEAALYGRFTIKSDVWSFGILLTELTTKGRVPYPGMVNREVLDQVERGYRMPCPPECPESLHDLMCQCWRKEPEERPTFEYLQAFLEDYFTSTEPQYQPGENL
Chain of PI 3-kinase γ (P48736 whole entry): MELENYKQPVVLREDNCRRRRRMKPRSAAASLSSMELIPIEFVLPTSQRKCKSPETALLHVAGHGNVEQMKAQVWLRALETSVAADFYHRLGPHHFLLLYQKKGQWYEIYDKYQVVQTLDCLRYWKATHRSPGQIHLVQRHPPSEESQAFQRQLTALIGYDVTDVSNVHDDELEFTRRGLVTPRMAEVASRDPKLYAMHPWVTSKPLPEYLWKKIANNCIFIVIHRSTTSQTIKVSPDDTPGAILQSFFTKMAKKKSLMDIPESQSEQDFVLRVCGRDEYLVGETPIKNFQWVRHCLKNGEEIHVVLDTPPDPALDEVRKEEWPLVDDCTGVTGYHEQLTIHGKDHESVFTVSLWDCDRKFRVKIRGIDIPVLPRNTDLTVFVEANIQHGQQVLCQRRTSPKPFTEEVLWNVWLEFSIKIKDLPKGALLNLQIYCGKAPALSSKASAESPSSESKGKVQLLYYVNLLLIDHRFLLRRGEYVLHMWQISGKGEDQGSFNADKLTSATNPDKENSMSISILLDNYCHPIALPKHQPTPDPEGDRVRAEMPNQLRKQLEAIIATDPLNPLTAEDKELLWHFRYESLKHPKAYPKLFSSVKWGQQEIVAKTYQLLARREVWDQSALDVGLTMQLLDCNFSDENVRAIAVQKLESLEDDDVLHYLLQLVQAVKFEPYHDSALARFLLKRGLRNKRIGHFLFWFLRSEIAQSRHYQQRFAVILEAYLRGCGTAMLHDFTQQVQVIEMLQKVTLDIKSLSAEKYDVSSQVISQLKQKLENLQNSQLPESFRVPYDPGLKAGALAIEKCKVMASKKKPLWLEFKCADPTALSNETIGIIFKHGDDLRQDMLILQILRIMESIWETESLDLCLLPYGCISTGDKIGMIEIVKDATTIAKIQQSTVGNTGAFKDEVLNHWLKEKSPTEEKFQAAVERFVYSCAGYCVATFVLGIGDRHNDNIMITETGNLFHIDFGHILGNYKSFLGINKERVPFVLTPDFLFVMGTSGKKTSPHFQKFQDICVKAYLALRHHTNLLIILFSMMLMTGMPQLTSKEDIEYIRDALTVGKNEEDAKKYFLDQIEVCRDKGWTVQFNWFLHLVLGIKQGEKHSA
Chain of ERK-2 (P28482 whole entry, species assumed): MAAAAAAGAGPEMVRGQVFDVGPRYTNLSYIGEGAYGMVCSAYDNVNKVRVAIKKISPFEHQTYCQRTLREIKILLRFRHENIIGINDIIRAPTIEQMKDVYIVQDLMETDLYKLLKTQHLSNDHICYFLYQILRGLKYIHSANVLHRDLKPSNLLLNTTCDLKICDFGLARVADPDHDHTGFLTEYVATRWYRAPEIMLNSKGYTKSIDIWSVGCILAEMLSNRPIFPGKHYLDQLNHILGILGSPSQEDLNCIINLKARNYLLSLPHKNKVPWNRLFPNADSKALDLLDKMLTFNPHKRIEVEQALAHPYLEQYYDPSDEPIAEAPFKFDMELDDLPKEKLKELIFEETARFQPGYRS

Nc1n[nH]c2nnc(-c3c(-c4ccccc4)nn4ccccc34)cc12 [FR180204, 5-(2-phenylpyrazolo[1,5-a]pyridin-3-yl)-1H-pyrazolo[3,4-c]pyridazin-3-amine]
decrease in number of HCV copies per ml supernatant compared with control treated cells (HCV [1]): ~50%
level of intracellular HCV RNA per μg total RNA (HCV [2]): increased

Cc1cc(O)c2c(=O)c3c(O)cc(O)c4c5c(O)cc(O)c6c(=O)c7c(O)cc(C)c8c1c2c(c34)c(c78)c65 [Hypericin]
IC50 (ERK-2): 0.004 µM

COc1cc(O)c2c(c1)/C=C/C[C@]1(O)C(C=CC(=O)[C@H]1O)[C@H](C)OC2=O (stereo partly drawn) [L-783,277]
IC50 (MEK-1): 0.004 µM

Cc1cc(I)ccc1Nc1c(C(=O)NOCC2CC2)cc(F)c(F)c1F [PD198306, N-(Cyclopropylmethoxy)-3,4,5-trifluoro-2-[(4-iodo-2-methylphenyl)amino]-benzamide]
concentration inhibiting isolated enzyme (MEK 1/2): 8 nM
concentrations inhibiting Mek activity in synovial fibroblasts (Mek): 30 to 100 nM
IC50 (ERK): > 1 µM
IC50 (c-Src): > 4 µM
IC50 (cdks): > 4 µM
IC50 (PI 3-kinase γ): > 10 µM

COc1cc(O)c2c(c1)/C=C/C[C@@]1(O)C(C=CC(=O)[C@H]1O)[C@H](C)OC2=O (some centres unmarked) [Ro 09-2210]
IC50 (MEK-1): 0.06 µM

N#CC(=C(/N)Sc1ccccc1N)/C(C#N)=C(\N)Sc1ccccc1N [U0126, 1,4-Diamino-2,3-dicyano-1,4-bis(2-aminophenylthio)butadiene]
HCV copies per ml supernatant relative to supernatant of control treated cells (HCV [1]): one third
level of intracellular HCV RNA per μg total RNA (HCV [2]): increased
viral entry detected by GFP expression (HCV [3]): HCV entered the cells
